# Results taken from patent publication US8273553B2, “Production of growth hormone in serum-free cell culture medium for mammalian cells” (Ares Trading S.A., priority 2004, dated 2012).
# Read-outs that look alike come from different tables or passages of the source.
# Experiments:
# [1] = system: hGH expressing C127 cells; experiment: rhGH productivity of hGH expressing C127 cells in roller bottles, DMEM supplemented with trace elements (Example 1); assay type: cell-based, murine; details: for average productivity increase compared to control: 10 μM continuously added to DMEM, production phase 14 days; for productivity increase at the assayed concentration (in words): 10 μM in DMEM; for % INCREASE OF PRODUCTIVITY: single ion in DMEM at growth medium concentration: Zn 1.50300, Cu 0.02560, Se 0.11400, Co 0.00840 μM; for productivity increase, amino acid added together with the metals: Zn 0.5 μM, Cu 0.02 μM, Ferric Citrate 4.8 μM plus Gln 4.8 mM or Cys 0.29 mM
# Description: The addition of the different supplements assayed (metal solutions etc.) in different experiments was carried out directly on fresh culture medium.
# Genetically modified C127 murine cells (ATCC CRL 1616) were used for the expression of the recombinant human growth hormone (rhGH). The vector is based on BPV69T comprising the pBR322 multiple cloning site and comprising 1.6 kb of the rhGH minigene under the control of mouse metallothionein-1 (MT-1) promoter. Cultures derived from one Working Cell Bank obtained from different rhGH production batches were used in the experiments.
# Cell cultures were kept incubated at 36° C.±0.5° C. and 0.4 rpm in 2125 cm^2 roller bottles containing 375 mL±15 mL of culture medium or in 1700 cm cm^2 roller bottles containing 300 mL of culture medium.
# Culture medium used for the rhGH production phase was DMEM with 4.5 g/L glucose buffered with sodium bicarbonate (3.7 g/L).
# Measurement of rhGH in the culture medium was carried out daily by reverse-phase HPLC titration:
# Chromatography conditions are: • Elution by gradient: starting with a mixture phase A/phase B 60/40 ending at phase A/phase B 20/80. Gradient complete in 5 minutes (slightly variable depending on instrumentation in use) • Injection volume 50 μliters • Detection: UV absorbance at 215 nm. • P Calibration curve: r-hGH standard at 10, 50, 100, 120 and 150 μg/ml
# The r-hGH concentration of a sample is determined by comparison with standard r-hGH concentrations.
# Productivity is expressed as mg of rhGH per roller bottle. Raw data are rhGH concentration in the harvest (as measured by HPLC) and total number of roller bottles harvested. Typically a roller bottle during harvest phase contains around 10^9 cells.
# [2] = system: r-hGH producing cells of working cell bank 15 (WCB15); experiment: r-hGH productivity in six-well plates (P6 system), DMEM with additions (Example 2); assay type: cell-based; details: for average productivity, % of control: duplicate; for response μg/well/hrvst / response as % “−1−1−1”: Cr 2.5 nM, Ni 1 nM in DMEM, average of 14 harvests; for response as % “−1−1−1”: relative to no addition; for % increase of hGH productivity: 6-well system
# Description: The experiments were carried out using the working cell bank 15 (WCB15), which is now in current use in normal production.
# Scale-down screening experiments were carried out in six-well plates COSTAR P6 of treated CELLBIND polystyrene (CORNING catalogue No. 3335) supplied with 5 mL of culture medium per well. In this case P6 plates were seeded with cells taken from the subculture 3 (standard manufacturing process) to an approximate density of 5×10^5 viable cells/well and then incubated at 37° C., within controlled atmosphere of CO2 at 5%, with standard growth medium or under 13% CO2 when changing to DMEM production medium modified as per the specific experimental plan.
# (§1) Measurement of r-hGH in the culture medium was carried out daily by the currently approved reverse-phase HPLC titration.
# In other experiments, metal trace elements were added to the DMEM in three concentrations and tested for effects on r-hGH productivity in 6-well plates. Each concentration was tested in duplicate and the average value was calculated. In all cases the concerned salt was prepared as 1000× stock solution from which the corresponding aliquots were taken and added to the medium.
# [3] = system: r-hGH producing cells of working cell bank 15 (WCB15); assay type: cell-based; details: for Product. up to H14 / Product. up to H25: relative to control
# Description: According to the approved work instructions, cell cultures were kept incubated at 36° C.±0.5° C. and 0.4 rpm in 1700 cm^2 roller bottles containing 400 mL±20 mL of culture medium.
# as §1
# [4] = system: cell monolayer of rhGH-producing cultures; experiment: peeling-off: detachment of the cell monolayer from the roller bottles; details: roller bottles with CDX, second part of harvest period
# [5] = pH in a range of 6.5 to 8.5; cited from earlier work
molecule,measurement,setting,value
"O.O.[Ba+2].[Cl-].[Cl-] [Ba, Barium Chloride (BaCl2.2H2O)]",average productivity increase compared to control,[1],1.1%
same,productivity increase at the assayed concentration (in words),[1],Neither Barium nor Chromium showed productivity increase
same,"average productivity, % of control",[2]; 1 nM in DMEM,103.1%
same,"average productivity, % of control",[2]; 10 nM in DMEM,101.9%
same,"average productivity, % of control",[2]; 100 nM in DMEM,98.9%
"O.O.O.O.O.O.O.O.O=S(=O)([O-])[O-].O=S(=O)([O-])[O-].O=S(=O)([O-])[O-].[Cd+2].[Cd+2].[Cd+2] [Cd, Cadmium Sulphate (CdSO4.8/3H2O)]","average productivity, % of control",[2]; 1 nM in DMEM,100.8%
same,"average productivity, % of control",[2]; 10 nM in DMEM,103.6%
same,increase of productivity,[2]; 100 nM,20%
same,"average productivity, % of control",[2]; 100 nM in DMEM,120.6%
same,increase in r-hGH productivity over the control,"[3]; Cd 100 nM, roller bottles, two independent experiments",12-15%
"O.O.O.O.O.O.[Cl-].[Cl-].[Co+2] [Co, Cobalt Chloride (CoCl2.6H2O)]",average productivity increase compared to control,[1],32.4%
same,"rhGH productivity increase compared to control, continued induction",[1]; cobalt continuously added (10 μM),32.5%
same,"rhGH productivity increase compared to control, intermittent induction",[1]; cobalt intermittently added (20 μM CoCl2.6H2O),9%
same,% INCREASE OF PRODUCTIVITY,[1],−3.20%
same,statistical analysis of effect on productivity (in words),"[2]; 2^3 factorial design, Co 5 mcrM",significant effect on productivity
same,response μg/well/hrvst,[2]; Co 5 mcrM,272.1 μg/well/hrvst
same,response as % “−1−1−1”,[2]; Co 5 mcrM,107.1%
same,Product. up to H14,[3]; Co 1 mcrM added to DMEM,107%
same,Product. up to H25,[3]; Co 1 mcrM added to DMEM,102%
same,Product. up to H14,[3]; Co 2 mcrM added to DMEM,110%
same,Product. up to H25,[3]; Co 2 mcrM added to DMEM,102%
same,Product. up to H14,[3]; Co 5 mcrM added to DMEM,113%
same,Product. up to H25,[3]; Co 5 mcrM added to DMEM,101%
same,Product. up to H14,[3]; Co 10 mcrM added to DMEM,117%
same,Product. up to H25,[3]; Co 10 mcrM added to DMEM,104%
"O.O.O.O.O.O.O.O.O.O.O.O.O=S(=O)([O-])[O-].O=S(=O)([O-])[O-].[Cr+3].[K+] [Cr, Chromium Potassium Sulfate (K[Cr(SO6H4)2(H2O)2].6H2O)]",productivity increase at the assayed concentration (in words),[1],Neither Barium nor Chromium showed productivity increase
same,"average productivity, % of control",[2]; 1 nM in DMEM,102.0%
same,"average productivity, % of control",[2]; 10 nM in DMEM,102.8%
same,"average productivity, % of control",[2]; 100 nM in DMEM,97.8%
same,response μg/well/hrvst,[2]; Co 5 mcrM,253.6 μg/well/hrvst
same,response as % “−1−1−1”,[2]; Co 5 mcrM,99.8%
"O.O.O.O.O.O=S(=O)([O-])[O-].[Cu+2] [Cu, Copper Sulfate (CuSO4.5H2O)]",increase in productivity,[1]; Copper 0.02 μM in DMEM,32.1%±9.4%
same,optimal supplementation concentration in DMEM,[1]; Zinc 0.5 μM and Ferric Citrate 4.8 μM constant,25.6 nM
same,% INCREASE OF PRODUCTIVITY,[1],37.50%
[Mn] [Mn],"average productivity, % of control",[2]; 1 nM in DMEM,101.3%
same,"average productivity, % of control",[2]; 10 nM in DMEM,103.8%
same,"average productivity, % of control",[2]; 100 nM in DMEM,101.8%
"O.O.O.O.O.O.O=[N+]([O-])[O-].O=[N+]([O-])[O-].[Ni+2] [Ni, Nickel Nitrate (Ni(NO3)2.6H2O)]","average productivity, % of control",[2]; 1 nM in DMEM,103.1%
same,"average productivity, % of control",[2]; 10 nM in DMEM,102.1%
same,"average productivity, % of control",[2]; 100 nM in DMEM,98.6%
same,response μg/well/hrvst,[2]; Co 5 mcrM,257.0 μg/well/hrvst
same,response as % “−1−1−1”,[2]; Co 5 mcrM,101.2%
"O.O.O.O.O.O=[Se]([O-])[O-].[Na+].[Na+] [Se, Sodium Selenite (Na2SeO3.5H2O)]",% INCREASE OF PRODUCTIVITY,[1],−3.10%
same,"average productivity, % of control",[2]; 1 nM in DMEM,101.5%
same,"average productivity, % of control",[2]; 10 nM in DMEM,102.4%
same,"average productivity, % of control",[2]; 500 nM in DMEM,101.4%
[Sn] [Sn],"average productivity, % of control",[2]; 1 nM in DMEM,101.8%
same,"average productivity, % of control",[2]; 10 nM in DMEM,97.7%
same,"average productivity, % of control",[2]; 100 nM in DMEM,96.5%
same,effect of higher concentrations on productivity (in words),[2]; highest tested concentrations,higher concentrations seem to reduce productivity
"O.O.O.O.O.O.O.O=S(=O)([O-])[O-].[Zn+2] [Zn, Zinc sulfate (ZnSO4.7H2O)]",concentration at which maximum productivity level (plateau) is observed,[1]; Ferric Citrate 4.8 μM and Copper 0.025 μM constant,above 200 nM
same,increase in productivity,[1]; Zinc 0.5 μM in DMEM,16.8%±1.6%
same,increase in productivity,[1]; Zinc 1.5 μM in DMEM,10.3%±5.0%
same,productivity at plateau over the average control value,"[1]; Zinc above 200 nM, Ferric Citrate 4.8 μM, Copper 0.025 μM",about 60%
same,% INCREASE OF PRODUCTIVITY,[1],12.10%
"N[C@@H](CSSC[C@H](N)C(=O)O)C(=O)O [cystine, L-cystine]","productivity increase, amino acid added together with the metals",[1],69.9%
"NC(=O)CC[C@H](N)C(=O)O [glutamine, L-glutamine]","productivity increase, amino acid added together with the metals",[1],81.1%
Methyl-β-Cyclodextrin [CDX],% increase of hGH productivity,"[2]; CDX 25 mg/L, 0.02 mM",2%
same,% increase of hGH productivity,"[2]; CDX 50 mg/L, 0.04 mM",4%
same,% increase of hGH productivity,"[2]; CDX 80 mg/L, 0.07 mM",5%
same,% increase of hGH productivity,"[2]; CDX 116 mg/L, 0.1 mM",7%
same,increase in productivity,[2]; CDX only (FIG. 19),7%
same,productivity relative to the control,"[3]; CDX 116 mg/L (0.1 mM), Cadmium 0.1 micromolar, Cobalt 1 micromolar",104%
same,peeling off in the roller bottles (visual observation),[4],much less peeling off
hGH: single polypeptide chain of 191 amino acids having two disulfide bonds,solubility in aqueous buffers,[5],> 10 µg/mL
